According to patent US20240115654A1, “INTRAVENOUS ADMINISTRATION OF ENGINEERED ANTIMICROBIAL AMPHIPHILIC PEPTIDES” (priority 2021, published 2024):
Values joined by “and” are separate entries in the source; they are usually repeats but may differ in a detail not shown here. Equal values may be shown once. Read-outs that look alike come from different tables or passages of the source. Peptide text beside a SMILES is read from it.

[1] = Cohort 1, 0.05 mg/kg IV infusion, Geometric Mean
[2] = Cohort 1, 0.05 mg/kg IV infusion, Max
[3] = Cohort 1, 0.05 mg/kg IV infusion, Mean
[4] = Cohort 1, 0.05 mg/kg IV infusion, Median
[5] = Cohort 1, 0.05 mg/kg IV infusion, Min
[6] = Cohort 1, 0.05 mg/kg IV infusion, cohort Geometric Mean
[7] = Cohort 1, 0.05 mg/kg IV infusion, cohort Mean
[8] = Cohort 1, 0.05 mg/kg IV infusion, cohort Median
[9] = Cohort 1, 0.05 mg/kg IV infusion, individual subject
[10] = Cohort 1, 0.05 mg/kg IV infusion, individual subjects
[11] = Cohort 3b and 4 section: over the 10-fold increase in dose
[12] = Cohort 3b and 4 section: over the […] increase in dose
[13] = Cohort 3b, […] IV infusion 2 hours, Max
[14] = Cohort 3b, […] IV infusion 2 hours, Min
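Further: phase 1 study in human subjects given one IV dose of the peptide, enrolled in sequential ascending-dose cohorts and randomized to peptide or placebo.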

In the case of `CC(C)[C@H](NC(=O)[C@H](Cc1c[nH]c2ccccc12)NC(=O)[C@H](CCCNC(=N)N)NC(=O)[C@H](CCCNC(=N)N)NC(=O)[C@@H](NC(=O)[C@@H](NC(=O)[C@H](CCCNC(=N)N)NC(=O)[C@@H](NC(=O)[C@@H](NC(=O)[C@H](CCCNC(=N)N)NC(=O)[C@H](CCCNC(=N)N)NC(=O)[C@H](Cc1c[nH]c2ccccc12)NC(=O)[C@@H](NC(=O)[C@H](CCCNC(=N)N)NC(=O)[C@H](CCCNC(=N)N)NC(=O)[C@@H](NC(=O)[C@H](CCCNC(=N)N)NC(=O)[C@H](CCCNC(=N)N)NC(=O)[C@@H](NC(=O)[C@H](Cc1c[nH]c2ccccc12)NC(=O)[C@H](CCCNC(=N)N)NC(=O)[C@@H](N)CCCNC(=N)N)C(C)C)C(C)C)C(C)C)C(C)C)C(C)C)C(C)C)C(C)C)C(=O)N[C@@H](CCCNC(=N)N)C(=O)N[C@@H](CCCNC(=N)N)C(N)=O` [SEQ ID NO: 1] (H-RRWVRRVRRVWRRVVRVVRRWVRR-NH2), the “Plasma Concentration by Nominal Time from Start of Infusion, Mean” value (from here on “Plasma Concentration by Nominal Time … Mean”) (Cohort 1, 0.05 mg/kg IV 1-hr infusion, 49 h, cohort mean) is reported as 0.00 ng/mL, the “Plasma Concentration by Nominal Time from Start of Infusion” value (Cohort 1, 0.05 mg/kg IV 1 hr infusion, 0.0 h, individual subjects) is reported as 0.00 ng/mL and the “Plasma Concentration by Nominal Time from Start of Infusion” value (Cohort 1, 0.05 mg/kg IV 1 hr infusion, 9.0 h, individual subjects) is reported as 63.2 ng/mL. The “Plasma Concentration by Nominal Time from Start of Infusion” value (Cohort 1, 0.05 mg/kg IV 1 hr infusion, 13 h, individual subjects) was 32.9 ng/mL, the “Plasma Concentration by Nominal Time from Start of Infusion” value (Cohort 1, 0.05 mg/kg IV 1 hr infusion, 21 h, individual subjects) was 0.00 ng/mL and the “Plasma Concentration by Nominal Time from Start of Infusion” value (Cohort 1, 0.05 mg/kg IV 1 hr infusion, 25 h, individual subjects) was 0.00 ng/mL. The “Plasma Concentration by Nominal Time from Start of Infusion” value (Cohort 1, 0.05 mg/kg IV 1 hr infusion, 37 h, individual subjects) was 0.00 ng/mL, the “Plasma Concentration by Nominal Time … Mean” value (Cohort 1, 0.05 mg/kg IV 1 hr infusion, 49 h, cohort mean N 6) was 0.00 ng/mL and the “Plasma Concentration by Nominal Time from Start of Infusion” value (Cohort 1, 0.05 mg/kg IV 1 hr infusion, 49 h, individual subjects) was 0.00 ng/mL. For the same molecule, the AUCextrap [1] was 8.36%, the CL/F [1] was 0.522 mL/min/kg and the Tlast [1] was 24 h. For the same molecule, the λz [1] was 0.0946 h⁻¹, the AUC0-24 [2] was 1610 ng·h/mL and the AUC(0-inf) [2] was 1820 ng·h/mL. For the same molecule, the AUC(0-t) [2] was 1720 ng·h/mL, the AUCextrap [2] was 12.1% and the CL/F [2] was 0.595 mL/min/kg. For the same molecule, the Cmax [2] was 341 ng/mL, the Tlast [2] was 37 h and the t1/2 [2] was 8.59 h. The λz [2] was 0.105 h⁻¹, the AUCextrap [3] was 8.87% and the CL/F [3] was 0.525 mL/min/kg. The Tlast [3] was 25 h, the λz [3] was 0.0950 h⁻¹ and the AUCextrap [4] was 8.12%. For the same molecule, the Tlast [4] was 25 h, the λz [4] was 0.0951 h⁻¹ and the AUC0-24 [5] was 619 ng·h/mL. It also gave an AUC(0-t) [5] of 515 ng·h/mL, an AUCextrap [5] of 4.54% and a CL/F [5] of 0.457 mL/min/kg. It also gave a Cmax [5] of 170 ng/mL, a Tlast [5] of 13 h and a t1/2 [5] of 6.62 h. The λz [5] was 0.0807 h⁻¹, the AUCextrap [6] was 8.36% and the CL/F [6] was 0.522 mL/min/kg. It also gave a Tlast [6] of 24 h, a λz [6] of 0.0946 h⁻¹ and an AUCextrap [7] of 8.87%. It also gave a CL/F [7] of 0.525 mL/min/kg, a Tlast [7] of 25 h and a λz [7] of 0.0950 h⁻¹. It also gave an AUCextrap [8] of 8.12%, a Tlast [8] of 25 h and a λz [8] of 0.0951 h⁻¹. The AUC(0-inf) [9] was 1490 ng·h/mL and 1800 ng·h/mL and 1820 ng·h/mL, the CL/F [9] was 0.595 mL/min/kg and 0.562 mL/min/kg and the AUC(0-inf) [10] was 1490 ng·h/mL and 1800 ng·h/mL and 1820 ng·h/mL. For the same molecule, the Tlast [10] was 25 h (4×) and 13 h and 37 h, the CL/F (Cohort 2, […] IV infusion, Max) was 1.44 mL/min/kg and the t1/2 (Cohort 2, […] IV infusion, Max) was 15.5 h. For the same molecule, the CL/F (Cohort 2, […] IV infusion, Mean) was 0.878 mL/min/kg, the CL/F (Cohort 2, […] IV infusion, Median) was 0.82 mL/min/kg and the CL/F (Cohort 2, […] IV infusion, Min) was 0.322 mL/min/kg. The t1/2 (Cohort 2, […] IV infusion, Min) was 7.51 h, the CL/F (Cohort 2, […] IV infusion, cohort Mean) was 0.878 mL/min/kg and the CL/F (Cohort 2, […] IV infusion, cohort Median) was 0.82 mL/min/kg. It also gave a CL/F (Cohort 3, […] IV infusion, Geometric Mean) of 0.91 mL/min/kg, a CL/F (Cohort 3, […] IV infusion, Max) of 4.3 mL/min/kg and a t1/2 (Cohort 3, […] IV infusion, Max) of 21.8 h. The CL/F (Cohort 3, […] IV infusion, Mean) was 1.4 mL/min/kg, the CL/F (Cohort 3, […] IV infusion, Min) was 0.295 mL/min/kg and the t1/2 (Cohort 3, […] IV infusion, Min) was 5.80 h. For the same molecule, the CL/F (Cohort 3, […] IV infusion, cohort Geometric Mean) was 0.91 mL/min/kg, the CL/F (Cohort 3, […] IV infusion, cohort Mean) was 1.4 mL/min/kg and the “increase of AUC0-t” value [11] was 6.4 fold. For the same molecule, the “increase of mean AUC0-24” value [11] was 5.8 fold, the “increase of mean Cmax” value [11] was 7.1 fold and the “increase of AUC0-t” value [12] was 4.2 fold. The “increase of mean AUC0-24” value [12] was 3.7 fold, the “increase of mean Cmax” value [12] was 3.7 fold and the CL/F (Cohort 3b, […] IV infusion 2 hours, Geometric Mean) was 0.748 mL/min/kg. For the same molecule, the CL/F [13] was 1.36 mL/min/kg, the t1/2 [13] was 17.5 h and the CL/F (Cohort 3b, […] IV infusion 2 hours, Mean) was 0.795 mL/min/kg. It also gave a CL/F (Cohort 3b, […] IV infusion 2 hours, Median) of 0.76 mL/min/kg, a CL/F [14] of 0.415 mL/min/kg and a t1/2 [14] of 9.72 h. It also gave a CL/F (Cohort 3b, […] IV, infusion 2 hours, cohort Geometric Mean) of 0.748 mL/min/kg, a CL/F (Cohort 3b, […] IV, infusion 2 hours, cohort Mean) of 0.795 mL/min/kg and a CL/F (Cohort 3b, […] IV, infusion 2 hours, cohort Median) of 0.76 mL/min/kg. For the same molecule, the “Plasma Concentration by Nominal Time … Mean” value (Cohort 4, 0.5 mg/kg IV 2-hr infusion, 0.0 h, cohort mean) was 0.00 ng/mL, the AUCextrap (Cohort 4, 0.5 mg/kg IV infusion 2 hours, Geometric Mean) was 7.38% and the AUC0-24 (Cohort 4, 0.5 mg/kg IV infusion 2 hours, Max) was 10400 ng·h/mL.
